Where a name gives a salt, the structure may show the parent alone. Read-outs that look alike come from different tables or passages of the source.
How the values were obtained:
HT29 = test: CellTiterGlo cell viability assay, HT29; assay type: cell-based; conditions: HT29, 72 h; for EC50: read-out: Ab EC50; for inhibition at 198 µM: read-out: Top Inhibit
Experimental: (§1) A subset of compounds of the invention were assayed for their cytotoxic activity in an array of different solid tumours and haematological malignancies using the following assay.
(§2) In vitro viability assay were performed to assess the effects of compounds on cell viability in selected cell lines over 72 h using the CellTiterGlo (CTG, Promega-G7573) assay. The tests were performed in duplicates with treatment of compounds at 9 points, 3.16 folds titration in 96 well plates over ˜72 h. The compound starting concentrations were 198 μM. Cell viability assay using CellTiterGlo in 96-well plate were performed. Compound treatment 72 h, standard growth conditions, duplicates. Compounds were dissolved to 40 mM with thawed […]. Compounds were serially diluted at 3.16 fold in thawed DMSO, and warmed to 37° C. before being dissolved in media (2 μL+200 μL). After compounds were dissolved in media, media containing compounds were warmed to 37° C. in incubator and then compounds in media were added to cell plates (50 μL+50 μL) in duplicates. The compounds' final concentrations were from 198 μM to 19.8 nM. All compound solubilities were checked and recorded again, then the plates were transferred to CO2 tissue culture incubator immediately and incubated for 3 days. DMSO final concentration is 0.5%. The parent nucleoside in each case was tested as a comparator, as was an exemplary ProTide. The drugs of the ProTide class that were tested were as follows:
(§3) The following cell lines were tested and are referred to in the Table 1 below:
(§4) In Tables 2, 3 and 4, ‘Ab EC50’ refers to the absolute EC50 and ‘Top inhibit’ refers to the percentage inhibition achieved at the highest concentration tested.

HepG2 = test: CellTiterGlo cell viability assay, HepG2; assay type: cell-based; conditions: HepG2, 72 h; for EC50: read-out: Ab EC50; for inhibition at 198 µM: read-out: Top Inhibit
Experimental: as §1, §2, §3, §4

OVCAR 3 = test: CellTiterGlo cell viability assay, OVCAR 3; assay type: cell-based; conditions: for EC50: read-out: Ab EC50; for inhibition at 198 µM: OVCAR-3, 72 h, read-out: Top Inhibit
Experimental: as §1, §2, §3, §4

MCF-7 = test: CellTiterGlo cell viability assay, MCF-7; assay type: cell-based; conditions: MCF-7, 72 h, percentage inhibition at the highest concentration tested; for inhibition at 198 µM: Homo sapiens, MCF7, 72 h, read-out: Top Inhibit
Experimental: as §1, §2, §3, §4

CCRF-CEM = test: CellTiterGlo cell viability assay, CCRF-CEM; assay type: cell-based; conditions: 72 h; for EC50: read-out: Ab EC50; for inhibition at 198 µM: read-out: Top Inh
Experimental: as §1, §2, §3, §4

MOLT-4 = test: CellTiterGlo cell viability assay, MOLT-4; assay type: cell-based; conditions: MOLT-4, 72 h; for EC50: read-out: Ab EC50; for inhibition at 198 µM: read-out: Top Inh
Experimental: as §1, §2, §3, §4

K562 = test: CellTiterGlo cell viability assay, K562; assay type: cell-based; conditions: for EC50: read-out: Ab EC50; for inhibition at 198 µM: read-out: Top Inh
Experimental: as §1, §2, §3, §4

HL-60 = test: CellTiterGlo cell viability assay, HL-60; assay type: cell-based; conditions: HL-60, 72 h; for EC50: read-out: Ab EC50; for inhibition at 198 µM: read-out: Top Inh
Experimental: as §1, §2, §3, §4

RL = test: CellTiterGlo cell viability assay, RL; assay type: cell-based; conditions: 72 h, percentage inhibition at the highest concentration tested; for inhibition at 198 µM: Homo sapiens, read-out: Top Inh
Experimental: as §1, §2, §3, §4

RPMI-8226 = test: CellTiterGlo cell viability assay, RPMI-8226; assay type: cell-based, Human; conditions: RPMI-8226, 72 h; for EC50: read-out: Ab EC50; for inhibition at 198 µM: read-out: Top Inh
Experimental: as §1, §2, §3, §4

KG-1 = test: CellTiterGlo cell viability assay, KG-1; assay type: cell-based; conditions: KG-1, 72 h; for EC50: read-out: Ab EC50; for inhibition at 198 µM: read-out: Top Inhibit
Experimental: as §1, §2, §3, §4

[1] = percentage inhibition at the highest concentration tested
[2] = Homo sapiens, HT-29, 72 h, Table 4 classes
[3] = Homo sapiens, HT-29, 72 h, percentage inhibition at the highest concentration tested
[4] = Homo sapiens, percentage inhibition at the highest concentration tested
[5] = Homo sapiens, OVCAR 3, 72 h, Table 4 classes
[6] = Homo sapiens, K562, 72 h, percentage inhibition at the highest concentration tested
[7] = Homo sapiens, K562, K 562, 72 h, Table 4 classes

| SMILES | EC50 (HT29; [2]) | inhibition at 198 µM (HT29; [3]) | inhibition at 198 µM (HepG2; [4]) | inhibition at 198 µM (OVCAR 3; [4]) | EC50 (OVCAR 3; [5]) | inhibition at 198 µM (MCF-7) | EC50 (CCRF-CEM; Homo sapiens, Table 4 classes) | inhibition at 198 µM (CCRF-CEM; [4]) | inhibition at 198 µM (MOLT-4; [4]) | EC50 (MOLT-4; Homo sapiens, Table 4 classes) | inhibition at 198 µM (K562; [6]) | EC50 (K562; [7]) | EC50 (HL-60; Homo sapiens, Table 4 classes) | inhibition at 198 µM (HL-60; [4]) | inhibition at 198 µM (RL) | EC50 (RPMI-8226; Homo sapiens, Table 4 classes) | inhibition at 198 µM (RPMI-8226; [4]) | EC50 (KG-1; Homo sapiens, Table 4 classes) | inhibition at 198 µM (KG-1; [4]) | further results |
| --- | --- | --- | --- | --- | --- | --- | --- | --- | --- | --- | --- | --- | --- | --- | --- | --- | --- | --- | --- | --- |
| CC(C)[C@H](NP(=O)(Oc1ccccc1)OP(=O)(O)OC[C@H]1O[C@@H](n2cnc3c(N)nc(Cl)nc32)[C@@H](F)[C@@H]1O)C(=O)OC1CCCCC1.CCN(CC)CC (stereo partly drawn) [Example 12, 2-Chloro-9-(2′-Deoxy-2′-fluoro-β-D-arabinofuranosyl)adenine-5′-O-[phenyl(cyclohexoxy-L-valinyl)] Diphosphate Triethylammonium Salt] | – | – | – | – | – | – | – | – | – | – | – | – | – | – | – | – | – | – | – | EC50 (HT29; absolute EC50, numeric values): 370 nM; Top Inhibit (HT29; [1]): 71%; EC50 (HepG2; absolute EC50, numeric values): 290 nM; Top Inhibit (HepG2; [1]): 54%; EC50 (OVCAR 3; OVCAR 3, 72 h, absolute EC50, numeric values): > 198 µM; Top Inhibit (OVCAR 3; OVCAR 3, 72 h, percentage inhibition at the highest concentration tested): 41%; Top Inhibit (MCF-7): 44%; EC50 (CCRF-CEM; absolute EC50, numeric values): < 20 nM; Top Inh (CCRF-CEM; [1]): 99%; EC50 (MOLT-4; absolute EC50, numeric values): 40 nM; Top Inh (MOLT-4; [1]): 91%; EC50 (K562; K562, 72 h, absolute EC50, numeric values): > 198 µM; Top Inh (K562; K562, 72 h, percentage inhibition at the highest concentration tested): 40%; EC50 (HL-60; absolute EC50, numeric values): 70 nM; Top Inh (HL-60; [1]): 96%; Top Inh (RL): 47%; EC50 (RPMI-8226; absolute EC50, numeric values): 39.6 µM; Top Inh (RPMI-8226; [1]): 79%; EC50 (KG-1; absolute EC50, numeric values): 140 nM; Top Inhibit (KG-1; [1]): 91% |
| C[C@H](NP(=O)(Oc1cccc2ccccc12)OP(=O)(O)OC[C@H]1O[C@@H](n2cnc3c(N)nc(Cl)nc32)[C@H](F)C1O)C(=O)OCC(C)(C)C (stereo partly drawn) [Example 13, 2-Chloro-9-(2′-Deoxy-2′-fluoro-β-D-arabinofuranosyl)adenine-5′-O-[1-naphthyl(neopentoxy-L-alaninyl)] Diphosphate Triethylammonium Salt] | 200 to 1000 nM | 68% | 49% | 80% | > 10 µM | 49% | < 200 nM | 99% | 89% | < 200 nM | 44% | > 10 µM | < 200 nM | 96% | 48% | > 10 µM | 88% | < 200 nM | 93% | – |
| C[C@@H](NP(=O)(Oc1ccccc1)OP(=O)(O)OC[C@H]1O[C@@H](n2cnc3c(N)nc(Cl)nc32)[C@H](F)C1O)C(=O)OCC(C)(C)C (stereo partly drawn) [Example 14, 2-Chloro-9-(2′-Deoxy-2′-fluoro-β-D-arabinofuranosyl)adenine-5′-O-[phenyl(neopentoxy-D-alaninyl)] Diphosphate Triethylammonium Salt] | 200 to 1000 nM | 71% | 52% | 43% | > 10 µM | 48% | < 200 nM | 99% | 95% | < 200 nM | 36% | > 10 µM | < 200 nM | 96% | 49% | > 10 µM | 78% | < 200 nM | 93% | EC50 (HepG2; Homo sapiens, Table 4 classes): 200 to 1000 nM |
